Data on four compounds can be found in patent US11779544B1, “Antithrombotic nanoparticles and methods for treating necrotizing enterocolitis” (University of South Florida, priority 2018, dated 2023).

Where a name gives a salt, the structure may show the parent alone.

Data set [1] concerns platelets from control pups. The experiment in a line: CD31 expression on control platelets resuspended in intestinal injury plasma. In kind it is cell-based, mice. As to conditions: bivalirudin 200 ng/mL; platelets resuspended ×45 min. Here is the method: (§1) FIG. 3b. Plasma from mouse pups with intestinal injury activates platelets via thrombin. […] N=3 mice/group; 2 runs; Kruskal Wallis H test with Dunn's post-test for group comparisons, ** P<0.01 vs. control, #P<0.05 vs. intestinal injury; FIG. 3c Thrombin activates platelets during murine neonatal intestinal injury. YFP^+ platelets were transfused into WT C57BL/6 pups with intestinal injury, and blood samples were drawn after 3 h. […] Treatment of YFP^+ platelets with bivalirudin prior to transfusion blocked activation-related increase in CD31 expression (lower right). […] N=4 mice/group; Kruskal Wallis H test with Dunn's post-test for group comparisons, * P<0.05 vs. untreated YFP^+ platelets, #P<0.05 vs. endogenous platelets in the bivalirudin-treated YFP^+ platelet transfusion group. […]
(§2) Platelet activation markers were measured by flow cytometry, using the following fluorescence-labeled antibodies: JON/A (Emfret); anti-CD62P, anti-CD41/GPIIb, CD61/integrin αvβ3, CD31/PECAM-1 (BioLegend, San Diego, Calif.). Platelets were evaluated by size-gate threshold adjustment with microbeads of known diameter (100 nm to 1.3 μm; Spherotech, Lake Forest, Ill.) in forward and side-scatter. […] Platelet aggregation was measured by impedance method and ATP release by luminometry using a 2-channel Chrono-Log lumi-aggregometer (model 700, Chrono-Log, Havertown, Pa., USA) per established methods. […]

Data set [2] deals with P10 platelets. Nature of the data set: Duration of bivalirudin inhibition of thrombin-mediated dense granule discharge after point-exposure and wash. Type of data set: cell-based, mice. As to conditions: platelets treated with bivalirudin in vitro and washed; thrombin 25 ng/mL. On the procedure: FIG. 13. Line diagrams (means±SEM) show mepacrine fluorescence signal released over time from control (blue) and bivalirudin-treated and washed (orange) P10 platelets into the supernatant, following treatment with thrombin (25 ng/mL). Data represent 3 separate experiments; each experiment included platelets pooled from 3 pups; Kruskal Wallis H test with Dunn's post-test for group comparisons; * P<0.05 vs. control.
In vivo assessment was performed for thrombin-mediated platelet activation during neonatal intestinal injury. […] In the next in vivo study, wild-type neonatal mice 3 h into intestinal injury were transfused with platelets expressing enhanced yellow fluorescence protein (YFP; platelets harvested from progeny of PF4-cre mice (C57BL/6-Tg(Cxcl4-cre)Q3Rsko/J)×R26-stop-YFP mutant mice (B6.129X1-Gt(ROSA)26Sortm1(EYFP)Cos/J). In some mice, YFP^+ platelets were pre-treated with bivalirudin prior to transfusion, and CD31 expression was then measured for both the endogenous and the bivalirudin-treated transfused YFP^+ platelets in blood samples drawn 3 h after the transfusion. Bivalirudin-pretreatment curtailed CD31 expression on YFP^+ platelets (FIG. 3c), providing further evidence for a role of thrombin as the primary platelet activator in NEC-like neonatal intestinal injury. […]

The next data set has as its system YFP+ platelets. The experiment in a line: Transfusion of bivalirudin-pretreated YFP+ platelets into pups with intestinal injury, CD31 expression. Type of data set: in vivo, mice. As to conditions: YFP+ platelets pre-treated with bivalirudin prior to transfusion, blood drawn 3 h after transfusion. Here is the method:
as §1, §2

The subject of data set [3] is P10 platelets. The experiment in a line: Mixing experiment: dense granule discharge (mepacrine release) of control platelets resuspended in intestinal injury plasma. Type of data set: cell-based, mice. As to conditions: mepacrine fluorescence released into supernatant; intestinal injury plasma at 3 h with added inhibitor. Here is the method:
FIGS. 12A and 12B. (A) Scatter bar diagrams (means±SEM) show mepacrine fluorescence signal released from control P10 platelets into the supernatant, following resuspension in plasma from pups in (1) control group; (2) intestinal injury at 3 h; and (3) intestinal injury at 3 h with added bivalirudin, a synthetic peptide inhibitor of thrombin. N=6 mice/group; (B) mepacrine fluorescence released from control platelets following resuspension in plasma from (1) control group (N=8 mice); (2) intestinal injury at 3 h (N=12 mice); and (3) intestinal injury at 3 h with added D-phenylalanyl-prolyl-arginyl chloromethyl ketone (PPACK), a different thrombin inhibitor (N=11 mice). Kruskal Wallis H test with Dunn's post-test for group comparisons; * P<0.05, ** P<0.01 vs. control; #P<0.05, ###P<0.001 vs. intestinal injury plasma.
(§3) Neonatal platelets can be hyporesponsive under specific conditions, [Mull M M, Hathaway W E. Altered platelet function in newborns. Pediatr Res. 1970; 4(3):229-237] and therefore, the ability of neonatal murine platelets to respond to thrombin was checked. Treatment of mepacrine-stained P10 platelets with recombinant thrombin ([…]) caused dense granule discharge within 15 min (FIG. 11). […]
(§4) Dense granules were stained with mepacrine (Quinacrine dihydrochloride; Sigma). […] Fluorescence was measured at 436/525 nm.

Data set [4] relates to P10 platelets. Nature of the data set: Recombinant thrombin treatment of mepacrine-stained platelets, dense granule discharge. In kind it is cell-based, mice. As to conditions: recombinant thrombin (25 μg/mL). Here is the method:
FIGS. 11A and 11B. Scatter bar diagrams (means±SEM) show (A) mepacrine fluorescence signal in platelets isolated from control P10 mice at serial time-points after treatment with recombinant thrombin (25 ng/mL). Fluorescence signal normalized and depicted as percent of control. Data represent 3 separate experiments; each experiment included platelets pooled from 3 pups; (B) mepacrine fluorescence signal released into the supernatant after thrombin stimulation. Kruskal Wallis H test with Dunn's post-test for group comparisons; ** P<0.01,*** P<0.001 vs. control.
as §3, §4

For data set [5] the following is noted: in vivo; cited from earlier work.
The conditions of data set [6]: cited from earlier work.
For another data set, the system named is plasma thrombin activity. The experiment in a line: Plasma thrombin activity in pups pre-treated with PCI-27483 before intestinal injury. Type of data set: in vivo, mice. As to conditions: pre-treatment with PCI-27483. From the text:
FIGS. 5A-5F. Resident intestinal macrophages release tissue factor to activate thrombin during neonatal intestinal injury. FIG. 5a. Scatterplots (means±SEM) show tissue factor (TF) concentrations in plasma and intestinal tissue at serial time points during neonatal intestinal injury, measured by ELISA. N=6 mice/group; Kruskal Wallis H test with Dunn's post-test for group comparisons, * P<0.05, ** P<0.01 vs. control; FIG. 5b. Plasma thrombin activity in mouse pups with intestinal injury vs. mouse pups first treated with PCI-27483, which inhibits the tissue factor-factor VII extrinsic pathway tenase complex. N=4 mice/group; Kruskal Wallis H test with Dunn's post-test for group comparisons, ***P<0.001 vs. control, ##P<0.01 vs. control treated with PCI-27483; FIG. 5c. Representative fluorescence photomicrographs show immunoreactivity for TF (green) in F4/80^+ (red) resident macrophages in control ileum and colon. […] FIG. 5d Scatter plots on right summarize the fluorescence intensity for TF in control intestinal epithelial cells (IECs), control macrophages, injury IECs, and injury macrophages (top) and in control colonic epithelial cells (CECs), control macrophages, injury CECs, and injury macrophages. […]
To investigate the mechanisms for thrombin activation, tissue factor (TF) concentrations were evaluated during NEC-like intestinal injury. […]

Turning to “bivalirudin: synthetic peptide of 20 amino acids (SEQ ID NO: 1); specific and reversible direct thrombin inhibitor”, the “effects of intestinal injury plasma on platelet CD31 expression” value in data set [1] is reported as “blocked”. Further, the “time bivalirudin-treated platelets remained refractory to thrombin” value in the data set with P10 platelets [2] is listed as at least 120 min. Besides, the “CD31 expression on transfused YFP+ platelets” value with YFP+ platelets was “blocked”; in the data set on YFP+ platelets (listed as Bivalirudin), “curtailed”. Moreover, in the data set on P10 platelets [3], the “platelet dense granule discharge caused by plasma from mice with intestinal injury” value was “blocked”.

As to “recombinant thrombin: Recombinant mouse thrombin (Molecular Innovations), used as platelet activator”, the “time to dense granule discharge” value in the data set on P10 platelets [4] is on record as at most 15 min.

In the case of `N=C(N)NCCCC(NC(=O)C1CCCN1C(=O)[C@H](N)Cc1ccccc1)C(=O)CCl` (stereo partly drawn) [PPACK, D-phenylalanyl-N-[(1S)-4-[(aminoiminomethyl)amino]-1-(2-chloroacetyl)butyl]-L-prolinamide, trifluoroacetate salt], in data set [5], the distribution half-life was 7 min and the elimination half-life was 2.9 min. Also, the LD50 result in data set [6] (in vivo) is reported as “greater than 50 mg/kg”. The long-term toxicity result in data set [6] (mice) is reported as “no long-term toxicity”.

In the case of `N=C(N)c1ccc2nc(-c3cc(CC(=O)N[C@@H](CC(=O)O)C(=O)O)cc(-c4cc(S(N)(=O)=O)ccc4O)c3O)[nH]c2c1` [PCI-27483], in the data set with plasma thrombin activity, the “rise in plasma thrombin activity during intestinal injury” value is reported as “blocked the rise”.
